Entries after “also recorded” stand apart in the source; their conditions may differ.
Key:
rat hippocampal neurons [1] = assay: Intracellular ROS production (DCF fluorescence) in rat hippocampal neuronal cultures; type: cell-based
Procedure: Neuronal cultures were incubated with 10 μM H2DCFDA (Molecular Probes, Eugene, Oreg.) for 60 min at 37° C. in PBS.
No decrease in neuronal viability occur-red in cell cultures subjected to Tat alone or Tat+cocaine after 2 hours of treatment.

rat hippocampal neurons [2] = assay: Live/Dead (Calcein/Ethidium) viability of rat hippocampal neuronal cultures; details: hydrochloride
human fetal neurons [3] = test system: human fetal neurons
Procedure: Culture of Human Brain Cells: Neuronal cultures were prepared as described previously (Magnuson D S, et al. Ann Neurol 1995, 37: 373-380; Nath A, et al. J Virol 1996, 70: 1475-1480; New D, et al. J Neurovirol 1997, 3: 168-173). Human fetal brain specimens of gestational age 12-14 weeks were obtained with the consent of women opting for elective termination of pregnancy. Protocols were carried out with strict adherence to the guidelines of the National Institutes of Health (NIH) and with approval from the University of Kentucky Institutional Review Board. Briefly, after mechanical dissociation, the cells were suspended in Opti-MEM with 5% heat-inactivated fetal bovine serum, 0.2% N2 supplement and 1% antibiotic solution (penicillin G sodium 104 units/ml, streptomycin sulfate 10 μg/ml and amphotericin-B 25 μg/ml) (GIBCO). The cells were maintained in culture flasks at 37° C. in a humidified atmosphere of 5% CO2 and 95% air for at least a month. At least 3 days before the experiment was performed the cells were plated in flat bottom 96 well plates coated with poly-d-lysine. Sample cultures were stained for the neuron-specific enolase, microtubule-associated protein-2, synaptophysin, and glial fibrillary astrocytic protein (GFAP). […] Sample cultures were further characterized for the presence of ER-α and ER-β and dopaminergic neurons.
Neurotoxicity Assay: At the time of the experimental treatment, the culture media was replaced with Locke's buffer containing (in mM) 154 NaCl, 5.6 KCl, 2.3 CaCl2, 1 MgCl2, 3.6 NaHCO3, 5 glucose, 5 N-2-hydroxyethylpiperazine-N′2-ethanesulfonic acid (HEPES) and 1% antibiotic solution (penicillin G sodium 104 units/ml, streptomycin sulfate 10 μg/ml and amphotericin-B 25 μg/ml) (pH 7.2). […] To replicate the stereoisomer specific neuroprotective properties of estrogen, the cultures were treated with either […] (10 nM), or 17α-E2 (10 nM) immediately preceding addition of the HIV proteins plus cocaine. To investigate the neuroprotective properties of other gonadal steroids, the cells were treated with various concentrations of PROG or T, immediately followed by exposure to the HIV proteins plus cocaine. […] Various concentrations of cholesterol were used as treatment prior to incubation with the HIV proteins plus cocaine to further characterize the nature of gonadal steroid neuroprotection. ICI-182,780, DMSO (10 nM), β-cyclodextrin (100 nM) and ethanol (10 nM) were also tested for neurotoxic/protective effects. ICI-182,780 and 17α-E2 were solvated in DMSO. […], T, PROG and cholesterol were β-cyclodextrin encapsulated to provide water solubility. Ethanol was used to solvate DHT. Tat1-72 was produced as indicated above, whereas gp120 was a gift from Chiron Corporation. The ICI-182,780 compound was obtained from Tocris Cookson, Inc. (Ellisville, Mo.). All other chemical agents were supplied by Sigma Chemicals (St. Louis, Mo.). At the end of the incubation period neuronal death was assessed by trypan blue (Sigma) exclusion assay as described previously (Vongher J and Frye C. Pharmacol Biochem Behav 1999, 64: 777-785; Magnuson D S, et al. Ann Neurol 1995, 37: 373-380; Nath A, et al. J Virol 1996, 70: 1475-1480).

human fetal neurons [4] = details: human fetal neuronal cultures, Turchan et al. 2001; cited from earlier work
rat hippocampal neurons [5] = assay: Protein carbonyl immunoreactivity in rat hippocampal cell cultures; details: 48-hrs treatment
[6] = cited from earlier work
[7] = test system: adult female Sprague-Dawley rats (ovariectomized); assay: Locomotor activity after intra-accumbal Tat and IV cocaine (Example 4); type: in vivo, rat; details: IV cocaine 3.0 mg/kg, saline intra-accumbal
Procedure: Animals. […] Ovariectomy was also performed on all rats during the same surgical procedure.
Intra-accumbal TAT injection. A 2 treatment×2 drug, design was used. Thus, rats received bilateral injections of TAT or vehicle into the nucleus accumbens core and were subsequently administered an IV injection of cocaine (3.0 mg/kg/injection) or saline. Rats were administered intra-accumbal TAT or VEH injections according to methods previously described (Bansal et al., 2000). Briefly, 15 μg of Tat were injected bilaterally, using a Hamilton Syringe coated with Sigmacote, at the following coordinates: 1.8 mm anterior, ±1.6 mm lateral, and 7.0 mm ventral from bregma on the skull surface.
Locomotor activity. The activity monitors were 16-cm diameter, round open-field chambers (Flex-Field, San Diego Instruments, San Diego, Calif.) that detected free movement of animals by infrared photocell interruptions. This equipment used an infrared photocell grid (32 emitter/detector pairs) to measure total locomotor activity. […]
Drug Treatment. […] The dose of cocaine hydrochloride (3.0 mg/kg/day; Sigma, St. Louis, Mo.) was calculated on the weight of the salt and dissolved in saline for an injection volume of 1 ml/kg.

[8] = repeated daily dosing in rat (Robinson et al. 1994)

COC(=O)[C@H]1[C@@H](OC(=O)c2ccccc2)C[C@@H]2CC[C@H]1N2C.Cl [cocaine, Cocaine hydrochloride]
intracellular ROS production, cocaine + Tat vs Tat alone (rat hippocampal neurons [1]; 1.6 μM cocaine + 50 nM Tat, 2 hours): increased intracellular ROS production relative to cultures treated with 50 nM Tat alone
difference in DCF fluorescence, Tat+cocaine vs Tat (rat hippocampal neurons [1]; 48 hours of treatment): not significant
DCF fluorescence, cocaine alone (rat hippocampal neurons [1]; cocaine alone): did not cause changes in DCF fluorescence
neuronal cell death / Tat toxicity, Tat + cocaine vs Tat alone (rat hippocampal neurons [2]; 50 nM Tat + 1.5-1.6 μM cocaine, 48 hours): significantly higher in cultures subjected to both Tat and cocaine; also recorded: enhanced Tat toxicity
toxicity / cell viability, cocaine alone (rat hippocampal neurons [2]; cocaine alone (0.1-10 μM; 1.5 μM)): No toxicity; also recorded: did not change cell viability
toxicity of HIV proteins combined with cocaine (human fetal neurons [3]; Tat 40 nM + gp120 32.5 pM + cocaine 1.6 μM): synergistic neurotoxicity
toxicity alone vs Locke's buffer (human fetal neurons [3]; substance alone, 15 hours): Neither the HIV proteins, Tat plus gp120, nor cocaine alone were more toxic than the Locke's buffer control
cocaine level not neurotoxic (prior work) (human fetal neurons [4]): ≤ 16 µM
levels of protein oxidation, Tat + cocaine vs Tat alone (rat hippocampal neurons [5]): higher than in cultures treated with just Tat alone
time to peak arterial plasma levels ([6]; 3.0 mg/kg/injection IV (Booze et al. 1997)): within one-minute
t1/2 in plasma ([6]; IV 3.0 mg/kg, rats (Booze et al., 1997)): 12 to 13 min
fetal brain levels of cocaine [6, 8]: 1750 ± 250 ng/mL
fetal plasma levels of cocaine [6, 8]: 500 ng/mL
centrally directed activity, cocaine [7]: cocaine-induced increase in centrally directed activity
